Experimental data as given in US6339042B1, “Herbicidal N-cyclohexadienyl heteroaryloxyacetamides” (American Cyanamid Co., priority 1999, dated 2002).

Assays:
Conditions in all cases: three weeks after treatment
Glycine max [1] = experiment: Post-emergence herbicidal evaluation, GLXMA
Description: (§2) Each pot is examined three weeks after treatment and phytotoxicity is assessed according to the rating system set forth below.
(§3) These acetone solutions are diluted with water and the resulting formulations applied at dosage levels equivalent of about 0.4 to 0.1 kg per hectare of test compound per pot. After spraying the plants are placed on greenhouse benches and are cared for in the usual manner, commensurate with conventional greenhouse practices.

Alopecurus myosuroides [2] = experiment: Post-emergence herbicidal evaluation, ALOMY
Glycine max [3] = experiment: Pre-emergence herbicidal evaluation, GLXMA; type: in vivo
Description: (§1) The treated pots are then placed on greenhouse benches, watered and cared for in accordance with conventional greenhouse procedures.

Echinochloa crus-galli [4] = experiment: Pre-emergence herbicidal evaluation, ECHCG; type: in vivo
Description: as §1

Triticum aestivum [5] = experiment: Post-emergence herbicidal evaluation, TRZAW
Oryza sativum [6] = experiment: Post-emergence herbicidal evaluation, ORYSA
Description: (§4) The compounds of the invention are tested for pre- and post-emergence herbicidal activity.
as §2, §3

Echinochloa crus-galli [7] = experiment: Post-emergence herbicidal evaluation, ECHCG
Galium aparine [8] = experiment: Post-emergence herbicidal evaluation, GALAP
Hordeum vulgare [9] = experiment: Post-emergence herbicidal evaluation, HORVW
Alopecurus myosuroides [10] = experiment: Pre-emergence herbicidal evaluation, ALOMY; type: in vivo
Description: as §1

Apera spica venti [11] = experiment: Post-emergence herbicidal evaluation, APESV
Description: as §4, §2, §3

Zea mays [12] = experiment: Post-emergence herbicidal evaluation, ZEAMX
Description: as §2, §3

Apera spica venti [13] = experiment: Pre-emergence herbicidal evaluation, APESV; type: in vivo
Description: as §1

Setaria viridis [14] = experiment: Pre-emergence herbicidal evaluation, SETVI; type: in vivo
Description: as §1

Lolium perenne [15] = experiment: Pre-emergence herbicidal evaluation, LOLPE; type: in vivo
Description: as §1

Triticum aestivum [16] = experiment: Pre-emergence herbicidal evaluation, TRZAW; type: in vivo
Description: as §1

Lolium perenne [17] = experiment: Post-emergence herbicidal evaluation, LOLPE
Oryza sativum [18] = experiment: Pre-emergence herbicidal evaluation, ORYSA; type: in vivo
Description: as §1

Galium aparine [19] = experiment: Pre-emergence herbicidal evaluation, GALAP; type: in vivo
Description: as §1

Amaranthus tuberculatus [20] = experiment: Pre-emergence herbicidal evaluation, AMATA; type: in vivo
Description: as §1

Setaria viridis [21] = experiment: Post-emergence herbicidal evaluation, SETVI
Description: as §4, §2, §3

Hordeum vulgare [22] = experiment: Pre-emergence herbicidal evaluation, HORVW; type: in vivo
Description: as §1

Zea mays [23] = experiment: Pre-emergence herbicidal evaluation, ZEAMX; type: in vivo
Description: as §1

Amaranthus tuberculatus [24] = experiment: Post-emergence herbicidal evaluation, AMATA; type: in vivo

## CC1=CC(N(C(=O)COc2nc3ccccc3o2)C(C)C)=CC(C)(C)C1 [Example 17]
Glycine max [1]; 0.100 kg/ha
  phytotoxicity rating GLXMA: 3 (3 - Moderate effect)
Glycine max [1]; 0.200 kg/ha
  phytotoxicity rating GLXMA: 3 (3 - Moderate effect)
Glycine max [1]; 0.400 kg/ha
  phytotoxicity rating GLXMA: 6 (6 - Herbicidal effect)
Alopecurus myosuroides [2]; 0.100 kg/ha
  phytotoxicity rating ALOMY: 3 (3 - Moderate effect)
Alopecurus myosuroides [2]; 0.200 kg/ha
  phytotoxicity rating ALOMY: 6 (6 - Herbicidal effect)
Alopecurus myosuroides [2]; 0.400 kg/ha
  phytotoxicity rating ALOMY: 8 (8 - Approaching complete kill)
Glycine max [3]; 0.100 kg/ha
  phytotoxicity rating GLXMA: 0 (0 - No effect)
Glycine max [3]; 0.200 kg/ha
  phytotoxicity rating GLXMA: 0 (0 - No effect)
Glycine max [3]; 0.400 kg/ha
  phytotoxicity rating GLXMA: 0 (0 - No effect)
Glycine max [3]; 0.800 kg/ha
  phytotoxicity rating GLXMA: 1 (1 - Trace effect)
Echinochloa crus-galli [4]; 0.100 kg/ha
  phytotoxicity rating ECHCG: 4 (4 - Injury)
Echinochloa crus-galli [4]; 0.200 kg/ha
  phytotoxicity rating ECHCG: 6 (6 - Herbicidal effect)
Echinochloa crus-galli [4]; 0.400 kg/ha
  phytotoxicity rating ECHCG: 7 (7 - Good herbicidal effect)
Echinochloa crus-galli [4]; 0.800 kg/ha
  phytotoxicity rating ECHCG: 9 (9 - Complete kill)
Triticum aestivum [5]; 0.100 kg/ha
  phytotoxicity rating TRZAW: 0 (0 - No effect)
Triticum aestivum [5]; 0.200 kg/ha
  phytotoxicity rating TRZAW: 1 (1 - Trace effect)
Triticum aestivum [5]; 0.400 kg/ha
  phytotoxicity rating TRZAW: 2 (2 - Slight effect)
Oryza sativum [6]; 0.100 kg/ha
  phytotoxicity rating ORYSA: 0 (0 - No effect)
Oryza sativum [6]; 0.200 kg/ha
  phytotoxicity rating ORYSA: 3 (3 - Moderate effect)
Oryza sativum [6]; 0.400 kg/ha
  phytotoxicity rating ORYSA: 4 (4 - Injury)
Echinochloa crus-galli [7]; 0.100 kg/ha
  phytotoxicity rating ECHCG: 3 (3 - Moderate effect)
Echinochloa crus-galli [7]; 0.200 kg/ha
  phytotoxicity rating ECHCG: 4 (4 - Injury)
Echinochloa crus-galli [7]; 0.400 kg/ha
  phytotoxicity rating ECHCG: 6 (6 - Herbicidal effect)
Galium aparine [8]; 0.100 kg/ha
  phytotoxicity rating GALAP: 1 (1 - Trace effect)
Galium aparine [8]; 0.200 kg/ha
  phytotoxicity rating GALAP: 3 (3 - Moderate effect)
Galium aparine [8]; 0.400 kg/ha
  phytotoxicity rating GALAP: 4 (4 - Injury)
Hordeum vulgare [9]; 0.100 kg/ha
  phytotoxicity rating HORVW: 0 (0 - No effect)
Hordeum vulgare [9]; 0.200 kg/ha
  phytotoxicity rating HORVW: 0 (0 - No effect)
Hordeum vulgare [9]; 0.400 kg/ha
  phytotoxicity rating HORVW: 0 (0 - No effect)
Alopecurus myosuroides [10]; 0.100 kg/ha
  phytotoxicity rating ALOMY: 3 (3 - Moderate effect)
Alopecurus myosuroides [10]; 0.200 kg/ha
  phytotoxicity rating ALOMY: 6 (6 - Herbicidal effect)
Alopecurus myosuroides [10]; 0.400 kg/ha
  phytotoxicity rating ALOMY: 6 (6 - Herbicidal effect)
Alopecurus myosuroides [10]; 0.800 kg/ha
  phytotoxicity rating ALOMY: 9 (9 - Complete kill)
Apera spica venti [11]; 0.100 kg/ha
  phytotoxicity rating APESV: 6 (6 - Herbicidal effect)
Apera spica venti [11]; 0.200 kg/ha
  phytotoxicity rating APESV: 8 (8 - Approaching complete kill)
Apera spica venti [11]; 0.400 kg/ha
  phytotoxicity rating APESV: 8 (8 - Approaching complete kill)
Zea mays [12]; 0.100 kg/ha
  phytotoxicity rating ZEAMX: 0 (0 - No effect)
Zea mays [12]; 0.200 kg/ha
  phytotoxicity rating ZEAMX: 0 (0 - No effect)
Zea mays [12]; 0.400 kg/ha
  phytotoxicity rating ZEAMX: 1 (1 - Trace effect)
Apera spica venti [13]; 0.100 kg/ha
  phytotoxicity rating APESV: 7 (7 - Good herbicidal effect)
Apera spica venti [13]; 0.200 kg/ha
  phytotoxicity rating APESV: 8 (8 - Approaching complete kill)
Apera spica venti [13]; 0.400 kg/ha
  phytotoxicity rating APESV: 9 (9 - Complete kill)
Apera spica venti [13]; 0.800 kg/ha
  phytotoxicity rating APESV: 9 (9 - Complete kill)
Setaria viridis [14]; 0.100 kg/ha
  phytotoxicity rating SETVI: 3 (3 - Moderate effect)
Setaria viridis [14]; 0.200 kg/ha
  phytotoxicity rating SETVI: 5 (5 - Definite injury)
Setaria viridis [14]; 0.400 kg/ha
  phytotoxicity rating SETVI: 8 (8 - Approaching complete kill)
Setaria viridis [14]; 0.800 kg/ha
  phytotoxicity rating SETVI: 8 (8 - Approaching complete kill)
Lolium perenne [15]; 0.100 kg/ha
  phytotoxicity rating LOLPE: 5 (5 - Definite injury)
Lolium perenne [15]; 0.200 kg/ha
  phytotoxicity rating LOLPE: 9 (9 - Complete kill)
Lolium perenne [15]; 0.400 kg/ha
  phytotoxicity rating LOLPE: 9 (9 - Complete kill)
Lolium perenne [15]; 0.800 kg/ha
  phytotoxicity rating LOLPE: 9 (9 - Complete kill)
Triticum aestivum [16]; 0.100 kg/ha
  phytotoxicity rating TRZAW: 1 (1 - Trace effect)
Triticum aestivum [16]; 0.200 kg/ha
  phytotoxicity rating TRZAW: 2 (2 - Slight effect)
Triticum aestivum [16]; 0.400 kg/ha
  phytotoxicity rating TRZAW: 2 (2 - Slight effect)
Triticum aestivum [16]; 0.800 kg/ha
  phytotoxicity rating TRZAW: 4 (4 - Injury)
Lolium perenne [17]; 0.100 kg/ha
  phytotoxicity rating LOLPE: 4 (4 - Injury)
Lolium perenne [17]; 0.200 kg/ha
  phytotoxicity rating LOLPE: 7 (7 - Good herbicidal effect)
Lolium perenne [17]; 0.400 kg/ha
  phytotoxicity rating LOLPE: 8 (8 - Approaching complete kill)
Oryza sativum [18]; 0.100 kg/ha
  phytotoxicity rating ORYSA: 2 (2 - Slight effect)
Oryza sativum [18]; 0.200 kg/ha
  phytotoxicity rating ORYSA: 3 (3 - Moderate effect)
Oryza sativum [18]; 0.400 kg/ha
  phytotoxicity rating ORYSA: 4 (4 - Injury)
Oryza sativum [18]; 0.800 kg/ha
  phytotoxicity rating ORYSA: 4 (4 - Injury)
Galium aparine [19]; 0.100 kg/ha
  phytotoxicity rating GALAP: 0 (0 - No effect)
Galium aparine [19]; 0.200 kg/ha
  phytotoxicity rating GALAP: 0 (0 - No effect)
Galium aparine [19]; 0.400 kg/ha
  phytotoxicity rating GALAP: 0 (0 - No effect)
Galium aparine [19]; 0.800 kg/ha
  phytotoxicity rating GALAP: 0 (0 - No effect)
Amaranthus tuberculatus [20]; 0.100 kg/ha
  phytotoxicity rating AMATA: 4 (4 - Injury)
Amaranthus tuberculatus [20]; 0.200 kg/ha
  phytotoxicity rating AMATA: 5 (5 - Definite injury)
Amaranthus tuberculatus [20]; 0.400 kg/ha
  phytotoxicity rating AMATA: 5 (5 - Definite injury)
Amaranthus tuberculatus [20]; 0.800 kg/ha
  phytotoxicity rating AMATA: 9 (9 - Complete kill)
Setaria viridis [21]; 0.100 kg/ha
  phytotoxicity rating SETVI: 5 (5 - Definite injury)
Setaria viridis [21]; 0.200 kg/ha
  phytotoxicity rating SETVI: 6 (6 - Herbicidal effect)
Setaria viridis [21]; 0.400 kg/ha
  phytotoxicity rating SETVI: 6 (6 - Herbicidal effect)
Hordeum vulgare [22]; 0.100 kg/ha
  phytotoxicity rating HORVW: 1 (1 - Trace effect)
Hordeum vulgare [22]; 0.200 kg/ha
  phytotoxicity rating HORVW: 2 (2 - Slight effect)
Hordeum vulgare [22]; 0.400 kg/ha
  phytotoxicity rating HORVW: 2 (2 - Slight effect)
Hordeum vulgare [22]; 0.800 kg/ha
  phytotoxicity rating HORVW: 4 (4 - Injury)
Zea mays [23]; 0.100 kg/ha
  phytotoxicity rating ZEAMX: 0 (0 - No effect)
Zea mays [23]; 0.200 kg/ha
  phytotoxicity rating ZEAMX: 0 (0 - No effect)
Zea mays [23]; 0.400 kg/ha
  phytotoxicity rating ZEAMX: 1 (1 - Trace effect)
Zea mays [23]; 0.800 kg/ha
  phytotoxicity rating ZEAMX: 3 (3 - Moderate effect)
Amaranthus tuberculatus [24]; 0.100 kg/ha
  phytotoxicity rating AMATA: 3 (3 - Moderate effect)
Amaranthus tuberculatus [24]; 0.200 kg/ha
  phytotoxicity rating AMATA: 4 (4 - Injury)
Amaranthus tuberculatus [24]; 0.400 kg/ha
  phytotoxicity rating AMATA: 5 (5 - Definite injury)
